This is an account of results in patent US20260207626A1, “SYNTHETIC TRITERPENOIDS AND COMPOSITIONS THEREOF IN WEIGHT MANAGEMENT, SKELETAL MUSCLE FUNCTION, AND APPETITE SUPPRESSION” (The Board of Regents of the University of Texas System, priority 2022, published 2026).

One experiment has as its system p65 NF-κB. In words: NF-κB p65 nuclear translocation (immunofluorescence and subcellular fractionation) in L6-GLUT4myc myotubes. The format is cell-based, rat. Here is the method:
NF-κB is bound to IκB-α in the cytoplasm. Upon activation of the IKK/NF-κB/IκB pathway, IκB is degraded, freeing NF-κB to translocate into the nucleus and activate the transcription of pro-inflammatory mediators. To visualize the localization of NF-κB, immunofluorescence and confocal microscopy studies were performed in L6-GLUT4myc myo-tubes pre-treated with CDDO-EA for 1 h and then exposed to LPS for 1 h. The untreated muscle cells show a basal-level expression of p65 NF-κB in the nucleus (FIG. 14A).
For subcellular fractionation, differentiated L6-GLUT4myc myotubes were pre-treated with CDDO-EA 500 nM for 1 h follow by LPS 100 ng/ml (E. coli O111: B4, Sigma Aldrich) treatment for 1 h, and the nuclear and cytosolic fractions were isolated using the Nuclear Extraction Kit (Panomics) according to the manufacturer's instructions. The extracted fractions were then analyzed by Western blotting as described.
Immunofluorescence microscopy: L6-GLUT4myc myoblasts (4×10^4 cells/ml, 0.2 ml/well) were plated onto Nunc Lab-TekII 8-chamber slides (Thermo Fisher Scientific) and differentiated for 7 days. Myotubes were pre-treated with CDDO-EA 500 nM for 1 h followed by LPS 100 ng/ml (E. coli O111: B4, Sigma Aldrich) treatment for 1 h. […]

Experiment [1] is described as follows: OGTT and fasting glucose at week 6 with pair-fed group. The format is in vivo, C57BL/6J mice. Here is the method: FIG. 25—OGTT Area Under the Curve. Oral GTT performed at week 6 of experimental feeding, and mice were dosed on lean mass (2 g/kg lean mass). C57BL/6J mice were fed a HFD with or without incorporation of CDDO-EA (diet containing 0.04% CDDO-EA) or LFD or HFD pair-fed for 6 weeks (n=5). Data are represented as mean±SEM (One-way ANOVA).
Fasting glucose levels were measured at day 42 of experimental feeding. C57BL/6J mice were fed a HFD with or without incorporation of CDDO-EA (diet containing 0.04% CDDO-EA) or a LFD or were HFD pair-fed for 6 weeks (n=5). Data are represented as mean±SEM (One-way ANOVA).
To determine the answer to this question, a pair-fed/weight-matched group was included in the study. OGTT was performed at end of the 6-week study.

The nature of experiment [2]: Body composition by NMR at 42 days. The format is in vivo, C57BL/6J mice. The note with it: all groups. The protocol:
FIG. 24—Body composition at 42 days. Body composition was measured by NMR. C57BL/6J mice were fed a HFD with or without incorporation of CDDO-EA (diet containing 0.04% CDDO-EA) or LFD or HFD pair-fed for 6 weeks (n=5). BW=body weight. Data are represented as mean±SEM (Two-way Repeated Measures ANOVA).
C57BL/6J mice (6-8 weeks old, male, strain #000664, The Jackson Laboratory) were divided into four (4) groups (i)-(iv)): (i) ad libitum Low fat caloric content (LFD-10% of total calories from fat caloric content, #TD.08806, Envigo), (ii) ad libitum HFD (60% of total calories from fat caloric content, #TD.06414, Envigo), (iii) HFD+CDDO-EA (diet containing 0.04% CDDO-EA), and (iv) HFD pair-fed to food intake of mice fed HFD+CDDO-EA. The study was for 6 weeks (42 days) (performed at Vanderbilt Metabolic Mouse Phenotyping Center (VMMPC)). Mice were singly housed in a Promethion Metabolic Analyzer and were monitored continuously for 7 days to assess feeding and EE.

“Also recorded” adds a separate entry of the source.

As for `CCNC(=O)[C@]12CCC(C)(C)C[C@H]1C1C(=O)C=C3[C@@]4(C)C=C(C#N)C(=O)C(C)(C)[C@@H]4CC[C@@]3(C)[C@]1(C)CC2` (stereo partly drawn) [CDDO-EA, (4aS,6aR,6bS,8aR,12aS,14bS)-11-cyano-N-ethyl-2,2,6a,6b,9,9,12a-heptamethyl-10,14-dioxo-1,3,4,5,6,6a,6b, 7,8,8a,9,10,12a, 14,14a, 14b-hexadecahydropicene-4a (2H)-carboxamide], the “LPS-induced p65 NF-κB nuclear translocation” value in the experiment on p65 NF-κB (500 nM CDDO-EA 1 hr then 100 ng/ml LPS 1 hr) is “reduces LPS-induced p65 NF-κB nuclear staining; also recorded: decreased both cytoplasmic and nuclear localization of p65 NF-κB; also recorded: prevented NF-κB translocation to the nucleus”. Besides, the NF-κB activation entry in the experiment with p65 NF-κB (CDDO-EA alone, no LPS) is recorded as “had no effect on NF-κB activation”. For the same compound, the fasting glucose result in experiment [1] (day 42, HFD+CDDO-EA compared to HFD ad lib) is given as “significant lowered fasting glucose levels; also recorded: lowers fasting glucose levels”; in experiment [1] (day 42, HFD+CDDO-EA compared to HFD pair-fed), “close to significant effect on fasting glucose”. Moreover, the “glucose tolerance (OGTT Area Under the Curve)” value was “significant improvement in glucose tolerance” in experiment [1] (week 6, HFD+CDDO-EA compared to HFD ad lib) and “slight improvement in glucose tolerance” in experiment [1] (week 6, HFD+CDDO-EA compared to HFD pair-fed). Further, the lean mass entry in experiment [2] was “no difference in lean mass between the groups”.
